Laboratory results: publication PMC3093368 (PLoS Pathogens, 2011)
“Also recorded” adds a separate entry of the source. Ends that are not written are not given here.

Tests used:
[1] = In vitro immunoproteasome digestion of 27mer peptides, MS/MS analysis; assay type: in vitro ADME; conditions: immunoproteasomes isolated from T2.27mp cells, 3 nmol 27mer, 1 µg immunoproteasome; for metabolised at 0.5 h, 30 µM: 100 µl 20 mM Hepes/KOH pH 7.8, 2 mM Mg acetate, 2 mM DTT, RP-HPLC ESI MS intensity, 30 min, read-out: substrate degraded after 30 min; for metabolised at 2 h, 30 µM: Hepes/KOH pH 7.8, MS intensity, read-out: substrate degraded after 2 h
Experimental: Immunoproteasomes were isolated from T2.27mp cells (that stably express all three immunosubunits) as previously described. Purified proteasomes were analyzed by SDS-PAGE. The yield was calculated at 90–95%. The 27mer peptides encompassing Q9VF/5D or Q9VF/5N were synthesized using standard Fmoc method on an Applied Biosystems 433A automated synthesizer. The peptides were purified by HPLC and analyzed by mass spectrometry. Three nmol of peptides were digested in vitro using 1 µg of proteasomes (for 0.5, 1, 2, 4, 8 and 18 h) in 100 µl of buffer containing 20 mM Hepes/KOH, pH 7.8, 2 mM magnesium acetate and 2 mM dithiothreitol. Reactions were stopped by the addition of trifluoroacetic acid to a final concentration of 0.3%. The digestions were analyzed, by mass spectrometry (RP-HPLC ESI) and the products were identified by MS/MS.

immunoproteasomes (IP) = assay: Immunoproteasomes isolated from T2.27mp cells, in 20 mM Hepes/KOH, pH 7.8, 2 mM magnesium acetate and 2 mM dithiothreitol; conditions: up to 18 h
immunoproteasome (IP) = assay: Immunoproteasomes isolated from T2.27mp cells; 20 mM Hepes/KOH, pH 7.8, 2 mM magnesium acetate, 2 mM dithiothreitol; conditions: human, up to 18 h
[2] = test system: HIVLAI-infected T1-B7 cells / Q9VF/5D-specific CTLs; assay: Mouse CTL recognition of HIV-infected T1-B7 cells after epoxomicin treatment (IFNγ-ELISpot); assay type: cell-based
Experimental: Mouse CTL lines were derived from splenocytes of peptide immunized HLA-B*07^mα3 transgenic mice. In brief, these mice express HLA-B*0702 heavy chain with a murine α3 domain and their H-2K^b and H-2D^b class Ia genes have been inactivated. Cytolytic activity of splenocyte cultures was first assessed in a^51Cr release assay. Peptide specific CTL lines were stimulated in vitro (5 µg/mL of peptide) and cultured in RPMI 1640 medium supplemented with 10% FCS, 0.5 µM 2-β-mercaptoethanol (Sigma), 100 IU/mL penicillin and 100 µg/mL streptomycin (Gibco-BRL). Ten days later, 2×10^3, 400 and 80 CTLs in triplicates were stimulated by 10^5 HIV-1-infected T1-B7 cells and IFNγ release was detected by ELISpot assay. Cross-reactivity of Q9VF/5D- and Q9VF/5N-specific CTLs was tested in IFNγ-ELISpot and Cr^51-release assays using T1-B7 peptide-loaded cells. Mouse CTL lines specific for the HLA-B*0702-restricted HIV-1 Nef-derived epitope F10LR (Nef 68[…]77; [22]) were used as controls. When stated, HIV-infected T1-B7 cells were treated with epoxomicin (6 h, 1 µg/ml, Calbiochem). To remove residual MHC-peptide complexes, epoxomycin-exposed cells were treated with a citrate-phosphate buffer (pH 3.3) containing 1% BSA and washed twice, prior co-culture with CTLs for an additional 8 h.

Row | Compound | metabolised at 0.5 h, 30 µM [1] [%] | metabolised at 2 h, 30 µM [1] [%] | cleaved bond (immunoproteasomes (IP)) | also measured
1 | MGKSSRREGFQPRSNTHVFSIIRRSHP [Q9VF/5N substrate] | 24 | 96 | – | –
2 | MGKSSRREGFQPRSDTHVFSIIRRSHP | – | – | F10-Q11, major; also recorded: F19-S20, major, 30 min; also recorded: I22-R23, major; also recorded: R24-S25, major; also recorded: S14-D15; also recorded: S4-S5; also recorded: R6-R7; also recorded: R23-R24 | –
3 | MGKSSRREGFQPRSDTHVFSIIRRSHP [Q9VF/5D substrate] | 24 | 96 | – | –
4 | MGKSSRREGFQPRSNTHVFSIIRRSHP | – | – | F19-S20, 30 min; also recorded: S4-S5; also recorded: F10-Q11, 1 h; also recorded: I22-R23; also recorded: R24-S25; also recorded: N15-T16, major, 30 min | fragment found (immunoproteasome (IP)): Q9VF (Q11-F19), minor
5 | CC[C@H](C)[C@H](NC(=O)[C@H]([C@@H](C)CC)N(C)C(C)=O)C(=O)N[C@H](C(=O)N[C@@H](CC(C)C)C(=O)[C@@]1(C)CO1)[C@@H](C)O [Epoxomicin, epoxomicin] | – | – | – | effect on activation of Q9VF/5D-specific CTLs by HIVLAI-infected cells ([2]; epoxomicin 1 µg/ml, 6 h at 37°C, citrate-phosphate buffer pH 3.3 wash, 8 h co-culture, IFNγ-ELISpot, representative of three CTL clones): abolished the capacity of HIVLAI-infected cells to activate Q9VF/5D-specific CTLs; effect on MHC-density and presentation of exogenous peptide ([2]; epoxomicin-treated T1-B7 cells, FACS, exogenous peptide 0.1 µg/ml): affected neither MHC-density
